{"source": "PubChem BioAssay AID330", "about": "(DTP/NCI, 2004)", "test_system": "P388 leukemia ip, CD2F1 mice, survival T/C", "assay": "NCI In Vivo Anticancer Drug Screen. Data for tumor model P388 Leukemia (intraperitoneal) in CD2F1 (CDF1) mice", "conditions": "endpoint: median survival time, higher = longer survival", "outline": "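Mice carrying the transplanted tumor received test compound or vehicle. Survival was recorded in each group, and the value is the treated-group measurement divided by that of the vehicle-treated control group.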", "key": {"[1]": {"conditions": "dose: 50.0 mg/kg/injection, schedule: Q01DX009 (ip), vehicle: saline with Tween-80"}, "[2]": {"conditions": "dose: 100.0 mg/kg/injection, schedule: Q01DX009 (ip), vehicle: saline with Tween-80"}, "[3]": {"conditions": "dose: 200.0 mg/kg/injection, schedule: Q01DX009 (ip), vehicle: saline with Tween-80"}, "[4]": {"conditions": "dose: 60.0 mg/kg/injection, schedule: Q01DX005 (ip), vehicle: saline with Tween-80"}, "[5]": {"conditions": "dose: 120.0 mg/kg/injection, schedule: Q01DX005 (ip), vehicle: saline with Tween-80"}, "[6]": {"conditions": "dose: 240.0 mg/kg/injection, schedule: Q01DX005 (ip), vehicle: saline with Tween-80"}, "[7]": {"conditions": "dose: 60.0 mg/kg/injection, schedule: Q01DX005 (ip), vehicle: saline"}, "[8]": {"conditions": "dose: 240.0 mg/kg/injection, schedule: Q01DX005 (ip), vehicle: saline"}}, "note": "Where “and” joins values, the source holds several entries; their conditions need not be identical. Equal values may be shown once. Toxic doses and inconclusive results are not listed.", "data": [{"smiles": "Nc1nc(F)nc2c1ncn2C1OC(CO)C(O)C1O", "note": "(stereo unspecified)", "values": [{"measurement": "T/C", "setting": "dose: 53.0 mg/kg/injection, schedule: Q03HX024 (ip), vehicle: saline with Tween-80", "result": "253 % of control"}, {"measurement": "T/C", "setting": "dose: 80.0 mg/kg/injection, schedule: Q03HX024 (ip), vehicle: saline with Tween-80", "result": "283 % of control"}, {"measurement": "T/C", "setting": "dose: 120.0 mg/kg/injection, schedule: Q03HX024 (ip), vehicle: saline with Tween-80", "result": "123 % of control"}]}, {"smiles": "CC1=NN(C(=O)c2ccncc2)C(=O)C1N=Nc1c(C)n(C)n(-c2ccccc2)c1=O", "note": "(stereo unspecified)", "values": [{"measurement": "T/C", "setting": "[1]", "result": "102 % of control"}, {"measurement": "T/C", "setting": "[2]", "result": "101 % of control"}, {"measurement": "T/C", "setting": "[3]", "result": "99 % of control"}]}, {"smiles": "COc1ccc(-n2nc3c(ccc4ccccc43)c2NC2CCCCC2)cc1", "values": [{"measurement": "T/C", "setting": "[4]", "result": "104 % of control"}, {"measurement": "T/C", "setting": "[5]", "result": "98 % of control"}, {"measurement": "T/C", "setting": "[6]", "result": "102 % of control"}]}, {"smiles": "COc1cc(C(c2cc3c(cc2O)OCO3)N2CCN(C(c3ccc(O)c(OC)c3)c3cc4c(cc3O)OCO4)CC2)ccc1O", "note": "(stereo unspecified)", "values": [{"measurement": "T/C", "setting": "[4]", "result": "89 % of control"}, {"measurement": "T/C", "setting": "[5]", "result": "92 % of control"}, {"measurement": "T/C", "setting": "[6]", "result": "95 % of control"}]}, {"smiles": "Nc1nc2ncn(COC(CO)CO)c2c(=O)[nH]1", "values": [{"measurement": "T/C", "setting": "[4]", "result": "100 % of control"}, {"measurement": "T/C", "setting": "[5]", "result": "98 % of control"}, {"measurement": "T/C", "setting": "[6]", "result": "100 % of control"}]}, {"smiles": "CCCCN1C=C(C)N(CCCC)CC1", "values": [{"measurement": "T/C", "setting": "dose: 12.5 mg/kg/injection, schedule: Q01DX005 (ip), vehicle: saline with Tween-80", "result": "109 % of control"}, {"measurement": "T/C", "setting": "dose: 25.0 mg/kg/injection, schedule: Q01DX005 (ip), vehicle: saline with Tween-80", "result": "114 % of control"}, {"measurement": "T/C", "setting": "dose: 50.0 mg/kg/injection, schedule: Q01DX005 (ip), vehicle: saline with Tween-80", "result": "121 % of control and 123 % of control"}, {"measurement": "T/C", "setting": "dose: 100.0 mg/kg/injection, schedule: Q01DX005 (ip), vehicle: saline with Tween-80", "result": "116 % of control"}]}, {"smiles": "CC(C)OC(=O)Oc1cccs1", "values": [{"measurement": "T/C", "setting": "dose: 12.5 mg/kg/injection, schedule: Q01DX009 (ip), vehicle: saline with Tween-80", "result": "100 % of control"}, {"measurement": "T/C", "setting": "dose: 25.0 mg/kg/injection, schedule: Q01DX009 (ip), vehicle: saline with Tween-80", "result": "109 % of control"}, {"measurement": "T/C", "setting": "[1]", "result": "100 % of control"}]}, {"smiles": "O=C(O)CNC(CO)(CO)CO", "values": [{"measurement": "T/C", "setting": "[7]", "result": "102 % of control"}, {"measurement": "T/C", "setting": "dose: 120.0 mg/kg/injection, schedule: Q01DX005 (ip), vehicle: saline", "result": "100 % of control"}, {"measurement": "T/C", "setting": "[8]", "result": "97 % of control"}]}, {"smiles": "[Cl][Sn]([c]1cccc2ccccc12)[c]1cccc2ccccc12", "values": [{"measurement": "T/C", "setting": "dose: 1.56 mg/kg/injection, schedule: Q01DX005 (ip), vehicle: Klucel (hydroxypropylcellulose) (HPC)", "result": "101 % of control"}, {"measurement": "T/C", "setting": "dose: 3.12 mg/kg/injection, schedule: Q01DX005 (ip), vehicle: Klucel (hydroxypropylcellulose) (HPC)", "result": "120 % of control"}, {"measurement": "T/C", "setting": "dose: 6.25 mg/kg/injection, schedule: Q01DX005 (ip), vehicle: Klucel (hydroxypropylcellulose) (HPC)", "result": "124 % of control"}, {"measurement": "T/C", "setting": "dose: 12.5 mg/kg/injection, schedule: Q01DX005 (ip), vehicle: Klucel (hydroxypropylcellulose) (HPC)", "result": "109 % of control"}]}, {"smiles": "Nc1cc(Cl)c2[nH]cnc2n1", "values": [{"measurement": "T/C", "setting": "dose: 25.0 mg/kg/injection, schedule: Q01DX005 (ip), vehicle: distilled water + Tween-80", "result": "102 % of control"}, {"measurement": "T/C", "setting": "dose: 50.0 mg/kg/injection, schedule: Q01DX005 (ip), vehicle: distilled water + Tween-80", "result": "111 % of control"}, {"measurement": "T/C", "setting": "dose: 200.0 mg/kg/injection, schedule: Q01DX005 (ip), vehicle: distilled water + Tween-80", "result": "152 % of control"}]}, {"smiles": "N[C@H]1c2ccsc2C(=O)[C@H]1O", "values": [{"measurement": "T/C", "setting": "[7]", "result": "153 % of control"}, {"measurement": "T/C", "setting": "[8]", "result": "155 % of control"}]}, {"smiles": "COc1ccc(CCNC(=O)c2cc3ccccc3oc2=O)cc1OC", "values": [{"measurement": "T/C", "setting": "[1]", "result": "94 % of control"}, {"measurement": "T/C", "setting": "[2]", "result": "96 % of control"}, {"measurement": "T/C", "setting": "[3]", "result": "97 % of control"}]}, {"smiles": "COc1cccc2c1C(=O)c1c(O)c3c(c(O)c1C2=O)CC(O)(/C(C)=N/NC(=O)CCCCCCC(=O)N/N=C(\\C)C1(O)Cc2c(O)c4c(c(O)c2C(OC2CC(N)C(O)C(C)O2)C1)C(=O)c1c(OC)cccc1C4=O)CC3OC1CC(N)C(O)C(C)O1", "note": "(stereo unspecified)", "values": [{"measurement": "T/C", "setting": "dose: 2.0 mg/kg/injection, schedule: Q01DX009 (ip), vehicle: water", "result": "162 % of control"}, {"measurement": "T/C", "setting": "dose: 4.0 mg/kg/injection, schedule: Q01DX009 (ip), vehicle: water", "result": "212 % of control"}, {"measurement": "T/C", "setting": "dose: 8.0 mg/kg/injection, schedule: Q01DX009 (ip), vehicle: water", "result": "245 % of control"}, {"measurement": "T/C", "setting": "dose: 16.0 mg/kg/injection, schedule: Q01DX009 (ip), vehicle: water", "result": "87 % of control"}]}]}
